Where two headings read alike, the source gives them in different places.
Tests used:
Experiment in all cases: Synergism test: MIC of radial hyphae growth on malt extract/peptone agar, SI by Kull
Format in all cases: cell-based
Poria placenta = conditions: nutrient agar, 26° C
Stereum sanguinolentum = conditions: nutrient agar, 26° C
Coniophora puteana = conditions: Example 8, penflufen/boron oxide, nutrient agar, 26° C
Gloeophyllum trabeum = system: Gloeophyllum trabeum
Coriolus versicolor = conditions: for MIC: Trametes versicolor
[1] = Example 1, penflufen/IPBC, nutrient agar, 26° C, complete suppression of radial hyphae growth, read-out: MIC against Gloeophyllum trabeum
[2] = Example 9, penflufen/boric acid, nutrient agar, 26° C, read-out: MIC Gloeophyllum trabeum
[3] = Example 3, penflufen/Lonzabac, nutrient agar, 26° C, read-out: MIC against Coriolus versicolor
[4] = Example 4, penflufen/DDAC, read-out: MIC Poria placenta
[5] = Example 5, penflufen/DDA propionate

With O.O.O.O.O.O.O.O.O.O.[Na+].[Na+].[O-]B1OB2OB([O-])OB(O1)O2 [sodium borate] the “MIC against Poria placenta” value (Poria placenta; Example 10, penflufen/sodium borate) was 100.0 ppm.
With Cc1nn(C)c(F)c1C(=O)Nc1ccccc1C(C)CC(C)C (stereo not drawn) [penflufen] the “MIC Stereum sanguinolentum” value (Stereum sanguinolentum; Example 7, penflufen/Carboquat) was 3.0 ppm, the MIC (Stereum sanguinolentum; Stereum sanguinolentum, Example 5, penflufen/DDA propionate) was 3 µg/mL and the MIC (Coniophora puteana; Coniophora puteana, read-out: MIC against Coniophora puteana) was 0.7 µg/mL. For the same compound, the MIC (Gloeophyllum trabeum; [1]) was 0.3 µg/mL, the MIC (Gloeophyllum trabeum; [2]) was 0.3 µg/mL and the MIC (Gloeophyllum trabeum; Example 11, penflufen/o-phenylphenol, nutrient agar, 26° C, read-out: MIC against Gloeophyllum trabeum) was 0.7 µg/mL. For the same compound, the “MIC Coriolus versicolor” value (Coriolus versicolor; Example 9, penflufen/boric acid, nutrient agar, 26° C) was 0.1 ppm, the MIC (Coriolus versicolor; [3]) was 0.5 µg/mL and the MIC (Coriolus versicolor; Example 4, penflufen/DDAC, nutrient agar, 26° C, read-out: MIC Coriolus versicolor) was 0.1 µg/mL. For the same compound, the MIC (Poria placenta; Example 2, penflufen/DCOIT, read-out: MIC against Poria placenta) was 0.3 µg/mL, the MIC (Poria placenta; [4]) was 0.1 µg/mL and the MIC (Poria placenta; Example 5, penflufen/DDA propionate, read-out: MIC Poria placenta) was 0.3 µg/mL. It also gave an MIC (Poria placenta; Example 6, penflufen/benzalkonium chloride, read-out: MIC against Poria placenta) of 0.3 µg/mL, an MIC (Poria placenta; Example 7, penflufen/Carboquat, read-out: MIC Poria placenta) of 0.3 µg/mL and an MIC (Poria placenta; Example 10, penflufen/sodium borate, read-out: MIC against Poria placenta) of 0.3 µg/mL.
CCCCNC(=O)OCC#CI [IPBC, 3-Iodo-2-propynyl N-butylcarbamate] showed an MIC (Gloeophyllum trabeum; [1]) of 10 µg/mL.
With boron oxide the “MIC against Coniophora puteana” value (Coniophora puteana) was 100 ppm.
In the case of Oc1ccccc1-c1ccccc1 [o-phenylphenol], the MIC (Gloeophyllum trabeum; read-out: MIC against Gloeophyllum trabeum) is reported as 60 µg/mL.
CCCCCCCCCCCCN(CCCN)CCCN [Lonzabac, N-(3-aminopropyl)-N-dodecyl-1,3-propanediamine] was tested, and the MIC (Coriolus versicolor; [3]) was 30 µg/mL.
With benzalkonium chloride the “MIC against Poria placenta” value (Poria placenta; Example 6, penflufen/benzalkonium chloride) was 100.0 ppm.
With “didecylmethylpoly(oxyethyl)ammonium Propionate [DDA propionate]” the “MIC Stereum sanguinolentum” value (Stereum sanguinolentum; [5]) was 30.0 ppm and the “MIC Poria placenta” value (Poria placenta; [5]) was 100.0 ppm.
OB(O)O [boric acid] gave an MIC (Gloeophyllum trabeum; [2]) of 100 µg/mL and an MIC (Coriolus versicolor; Example 9, penflufen/boric acid, nutrient agar, 26° C, read-out: MIC Coriolus versicolor) of 100 µg/mL.
With CCCCCCCCCC[N+](C)(C)CCCCCCCCCC.[Cl-] [DDAC, Didecyldimethylammonium Chloride] the MIC (Coriolus versicolor; read-out: MIC Coriolus versicolor) was 60 µg/mL and the MIC (Poria placenta; [4]) was 100 µg/mL.

— patent US9596854B2, “Fungicidal penflufen mixtures” (priority 2010, dated 2017)
